{
  "source": "patent US20050176641A1",
  "about": "“Long lasting natriuretic peptide derivatives” (CONJUCHEM, INC., priority 2000, published 2005)",
  "key": {"[1]": {"target": "T1, natriuretic peptide receptors with guanylate cyclase activity (Homo sapiens, UniProt P16066)", "T1 construct": "Hela cells express high levels of natriuretic peptide receptors with guanylate cyclase activity; endogenous in cells; host or cells: HeLa (human cervix epithelial adenocarcinoma)", "T1 sequence (P16066 33-1061)": "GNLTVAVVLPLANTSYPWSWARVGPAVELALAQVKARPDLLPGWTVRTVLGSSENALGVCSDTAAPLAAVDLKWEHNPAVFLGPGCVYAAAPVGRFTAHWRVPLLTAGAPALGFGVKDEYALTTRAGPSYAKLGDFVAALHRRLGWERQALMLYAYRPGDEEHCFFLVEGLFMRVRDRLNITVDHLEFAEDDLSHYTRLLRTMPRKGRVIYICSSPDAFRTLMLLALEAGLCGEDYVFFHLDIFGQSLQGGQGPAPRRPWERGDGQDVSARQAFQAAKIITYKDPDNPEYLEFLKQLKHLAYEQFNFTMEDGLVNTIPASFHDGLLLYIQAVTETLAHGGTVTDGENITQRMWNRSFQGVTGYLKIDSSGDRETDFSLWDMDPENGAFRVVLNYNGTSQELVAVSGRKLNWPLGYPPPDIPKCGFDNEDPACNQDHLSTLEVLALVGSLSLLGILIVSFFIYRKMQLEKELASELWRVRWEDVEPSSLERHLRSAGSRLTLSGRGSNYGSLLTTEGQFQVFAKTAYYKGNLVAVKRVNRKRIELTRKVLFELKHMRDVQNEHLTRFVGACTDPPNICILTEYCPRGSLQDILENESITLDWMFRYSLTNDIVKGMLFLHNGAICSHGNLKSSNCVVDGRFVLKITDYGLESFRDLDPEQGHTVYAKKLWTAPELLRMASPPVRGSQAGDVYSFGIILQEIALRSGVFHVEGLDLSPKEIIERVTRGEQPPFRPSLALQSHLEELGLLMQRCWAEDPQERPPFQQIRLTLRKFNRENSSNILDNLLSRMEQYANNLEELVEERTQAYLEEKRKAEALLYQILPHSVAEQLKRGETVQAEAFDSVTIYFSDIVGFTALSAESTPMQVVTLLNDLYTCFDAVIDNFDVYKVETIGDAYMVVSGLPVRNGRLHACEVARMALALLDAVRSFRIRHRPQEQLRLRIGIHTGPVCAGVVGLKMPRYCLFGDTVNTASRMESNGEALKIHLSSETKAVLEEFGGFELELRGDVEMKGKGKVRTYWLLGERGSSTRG", "experiment": "cGMP production in human Hela cells", "format": "cell-based", "quoted_text": "For in vitro activity studies, a human cervix epithelial adenocarcinoma cell line was used. Hela cells express high levels of natriuretic peptide receptors with guanylate cyclase activity.\nOne day prior cGMP experiments, cells are seeded in 48-wells plate (5×10^4 cells per well) and incubated overnight. The day of the experiment cells are washed twice in serum-free media and then incubated with or without NP derivatives or native ANP or BNP for one hour, in presence of 3-isobutyl-1-methylxanthine to prevent cGMP degradation. Incubation is terminated by removing the assay medium and by adding HCl to the cells for 10 minutes. The supernatants were then collected, centrifuged and cGMP levels are assessed using the direct cGMP EIA kit from Sigma."}, "NPR receptors": {"target": "NPR receptors", "experiment": "Binding to guinea pig adrenal gland membranes by displacement of 125I-rANP", "protocol": "The potency of NP derivatives is evaluated as their ability to bind NPR receptors in guinea pig adrenal glands and to elevate cGMP levels in a rat primary lung fibroblasts assay. Others cell lines can be used to perform these in vitro assays such as aortic smooth muscle cells, glomeruli mesangial cells and adrenal cells. Human, rat, and ginea pig cell lines or other species cell lines can be used with a preference for human cell lines.\nMembranes for binding studies are prepared as follow. Adrenal glands were collected from anesthetized normal Duncan Hartley Guinea Pig and homogenized using a polytron in 50 mM Tris-HCl buffer containing 150 mM NaCl, 5 mM MgCl2, 5 mM MnCl2; pH 7.4 at 25° C. The homogenate was centrifuged for 10 minutes at 39,000×g (4° C.). The pellet was resuspended and washed. Finally, the membranes were resuspended in the same buffer supplemented with 1 mM Na2EDTA+0.2% BSA. Protein concentration is measured using the BCA protein assay kit (Pierce). The binding assay is done by incubation of membranes with 0.016 nM ^125I-rANF and increasing concentrations of either NP peptides or NP derivatives (10^−5-10^−11 M) for 60 minutes at 4° C. All assays were done in duplicate. Separation of bound and free radioactive rANF was achieved by rapid filtration through polyethylenimine-treated Whatman GF/C filters soaked in assay buffer. Filters were washed, dried and counted for radioactivity in a gamma-counter."}, "[2]": {"conditions": "literature values; cited from earlier work"}, "[3]": {"conditions": "human Hela cells, one hour incubation, with 3-isobutyl-1-methylxanthine, read-out: EC50 (M), increase of cGMP production"}},
  "note": "Read-outs that look alike come from different tables or passages of the source. Positions of bridges follow the written chain, without caps; N, C: chain ends. Residues, ends and D or L forms follow the SMILES beside them.",
  "data": [
    {"compound": "CC[C@H](C)[C@@H]1NC(=O)[C@H](CCCNC(=N)N)NC(=O)[C@H](CC(=O)O)NC(=O)[C@H]([C@@H](C)CC)NC(=O)[C@H](CCCNC(=N)N)NC(=O)CNC(=O)CNC(=O)[C@H](Cc2ccccc2)NC(=O)[C@@H](N)CSSC[C@@H](C(=O)N[C@@H](CC(N)=O)C(=O)N[C@@H](CO)C(=O)N[C@@H](Cc2ccccc2)C(=O)N[C@@H](CCCNC(=N)N)C(=O)N[C@@H](Cc2ccc(O)cc2)C(N)=O)NC(=O)CNC(=O)[C@H](CC(C)C)NC(=O)CNC(=O)[C@H](CO)NC(=O)[C@H](CCC(N)=O)NC(=O)[C@H](C)NC(=O)CNC1=O", "note": "[Example 13] (H-CFGGRIDRIGAQSGLGCNSFRY-NH2; disulfide 1-17)", "values": [
      {"measurement": "EC50", "setting": "[1]; [3]", "value": "2.72e-08", "unit": "M"}
    ]},
    {"compound": "CC[C@H](C)[C@@H]1NC(=O)[C@H](CCCNC(=N)N)NC(=O)[C@H](CC(=O)O)NC(=O)[C@H](CCSC)NC(=O)[C@H](CCCNC(=N)N)NC(=O)CNC(=O)CNC(=O)[C@H](Cc2ccccc2)NC(=O)[C@@H](N)CSSC[C@@H](C(=O)N[C@@H](CC(N)=O)C(=O)N[C@@H](CO)C(=O)N[C@@H](Cc2ccccc2)C(=O)N[C@@H](CCCNC(=N)N)C(=O)N[C@@H](Cc2ccc(O)cc2)C(N)=O)NC(=O)CNC(=O)[C@H](CC(C)C)NC(=O)CNC(=O)[C@H](CO)NC(=O)[C@H](CCC(N)=O)NC(=O)[C@H](C)NC(=O)CNC1=O", "note": "[Example 17] (H-CFGGRMDRIGAQSGLGCNSFRY-NH2; disulfide 1-17)", "values": [
      {"measurement": "EC50", "setting": "[1]; [3]", "value": "2.21e-08", "unit": "M"}
    ]},
    {"compound": "CC[C@H](C)[C@@H]1NC(=O)[C@H](CCCNC(=N)N)NC(=O)[C@H](CC(=O)O)NC(=O)[C@H](CCSC)NC(=O)[C@H](CCCCN)NC(=O)[C@H](CCCNC(=N)N)NC(=O)CNC(=O)[C@H](Cc2ccccc2)NC(=O)[C@@H](NC(=O)CNC(=O)[C@H](CO)NC(=O)CNC(=O)[C@H](CCC(N)=O)NC(=O)[C@@H](NC(=O)[C@H](CCSC)NC(=O)[C@H](CCCCN)NC(=O)[C@@H]2CCCN2C(=O)[C@@H](N)CO)C(C)C)CSSC[C@@H](C(=O)N[C@@H](CCCCN)C(=O)N[C@H](C(=O)N[C@@H](CC(C)C)C(=O)N[C@@H](CCCNC(=N)N)C(=O)N[C@@H](CCCNC(=N)N)C(=O)N[C@@H](Cc2c[nH]cn2)C(N)=O)C(C)C)NC(=O)CNC(=O)[C@H](CC(C)C)NC(=O)CNC(=O)[C@H](CO)NC(=O)[C@H](CO)NC(=O)[C@H](CO)NC(=O)[C@H](CO)NC1=O", "note": "[Example 21]", "values": [
      {"measurement": "Ki", "setting": "NPR receptors; displacement of 125I-ANF, read-out: apparent inhibition constant (Ki value)", "value": 4.8, "unit": "nM"},
      {"measurement": "Ki", "setting": "NPR receptors; displacement of 125I-rANF, text gives the same Ki in M, read-out: KI (inhibition constant)", "value": 4.86, "unit": "nM"},
      {"measurement": "EC50", "setting": "NPR receptors; read-out: EC50 (M), concentration at 50% of inhibition, displacement of 0.016 nM 125I-rANF, 60 minutes at 4° C.", "value": "5.41e-09", "unit": "M"},
      {"measurement": "EC50", "setting": "[1]", "value": "1.99e-08", "unit": "M"}
    ]},
    {"compound": "human BNP: native human Brain Natriuretic Peptide, 32 amino acid peptide", "values": [
      {"measurement": "in vivo half-life", "setting": "[2]", "value": 12.7, "unit": "min"}
    ]}
  ]
}
